Tests used:
HepG2 cells = test system: HepG2 cells
Method: CYP3A4 and P450 reductase were delivered into HepG2 cells (Hep-3A4) by adenoviral transduction at Multiplicity of Infection (MOI)=8. […] The adenovirus Ad-mock was used to transduce HepG2 cells at MOI=8 as control (Hep-mock). CYP3A4 activity was determined and compared in Hep-3A4 cells and cryopreserved human hepatocytes.

[1] = test system: cryopreserved human hepatocytes
[2] = test system: antioxidant responsive element (ARE); experiment: ARE luciferase reporter induction in adenovirus-P450-transduced ARE32 (MCF-7/ARE) cells; assay type: cell-based, human; conditions: BHA 20 μM; for ARE reporter induction: 7-EC 100 μM; for induction of the ARE reporter: MCF-7 control cells or in the presence of CYP3A4 or CYP2D6, 7-E 100 μM
Method: ARE32 cells were seeded in 24-well plates at 2×10^5 cells per well and cultured overnight. Cells were transduced for 2 h with up to three Adeno-P450s at MOI value of 27 pfu/cell in 0.5 ml of culture medium, after which the medium was removed and replaced with fresh medium. Cells were incubated for an additional 48 h and then were treated with chemicals in serum-free medium for 1 day. Then cells were harvested and lysed. The Luciferase Reporter Assay System (Promega) was used to examine reporter gene activity in cell lysates.
In cell line ARE32, the antioxidant responsive element (ARE), activated by Nrf2, is used to drive a luciferase gene as reporter. A functional ARE is found in the 5′ flanking region of genes encoding NQO1, multiple GST isozymes and many other anticarcinogenic/antioxidant genes. Induction of these genes confers cytoprotection against carcinogenesis and acts to minimize the effects of the toxic insult. Therefore, measurement of ARE induction provides useful information into the particular mechanism of toxicity. […] ARE32 control values are from ARE32 cells without virus infection. ARE32 Transduced values are from ARE32 cells infected with three viruses: Ad3A4.F2A.CPR; Ad2D6(His)CPR; and Ad2A6.F2A.1A1 at a total MOI value of 27.
In further experiments, we examined induction of the ARE reporter in MCF-7 cells expressing CYP3A4 and CPR, CYP2A6 and CPR, CYP2D6 and CPR or CYP2A6 and CYP1A1 by either butylated hydroxyanisole, an antioxidant widely used as a food preservative (BHA-20 μM) or 7-ethoxycoumarin, an antioxidant (7-E-100 μM).
With reference to FIG. 5, expression of the luciferase reporter readout is evaluated in comparison to control MCF-7/ARE cells not expressing P450 transgenes (first bar=1).
Butylated hydroxyanisole (BHA) is an antioxidant used as a food additive (E320). […] We examined induction of the ARE reporter in ARE32 cells expressing CYP3A4 and CPR, CYP2A6 and CPR, CYP2D6 and CPR or CYP2A6 and CYP1A1 by either butylated hydroxyanisole (BHA) at 20 μM or 7-ethoxycoumarin (7-EC) at 100 μM (FIG. 8).

[3] = ARE32 cells expressing CYP3A4 or CYP2D6 (with CPR)

For `CC(=O)Nc1ccc(O)cc1` [acetaminophen], the “effect of glutathione depletion by BSO on cytotoxicity” value (HepG2 cells; 100 μM BSO, Hep-3A4 and Hep-mock cells) was “significant sensitisation”, the “additional CYP3A4 related cytotoxic effect under glutathione depletion” value (HepG2 cells; 100 μM BSO, Hep-3A4 vs Hep-mock, at the concentrations used) was “no apparent additional CYP3A4 related cytotoxic effect” and the “cell viability (ATP depletion assay)” value (HepG2 cells; Hep-3A4 and Hep-mock cells) was “dose-dependent decrease in cell viability”. The “concentration at which CYP3A4-related toxic activation was observed” value (HepG2 cells; Hep-3A4 vs Hep-mock) was 10000 µM.
In the case of `CC/C(=C(\c1ccccc1)c1ccc(OCCN(C)C)cc1)c1ccccc1` [tamoxifen], the “cell viability (ATP depletion assay)” value (HepG2 cells; Hep-3A4 and Hep-mock cells) is reported as “dose-dependent decrease in cell viability” and the “cell viability (ATP depletion assay)” value [1] is reported as “dose-dependent decrease in cell viability”.
With `COc1ccc(O)c(C(C)(C)C)c1` [BHA, butylated hydroxyanisole] the ARE reporter induction ([2]; ARE32 cells expressing CYP2A6) was “Significant ARE reporter induction”, the ARE reporter induction [2, 3] was “not with CYP3A4 or CYP2D6” and the “induction of the ARE reporter” value [2] was “little or no induction”.
In the case of `CCOc1ccc2ccc(=O)oc2c1` [7-ethoxycoumarin], the ARE reporter induction ([2]; ARE32 cells expressing CYP2A6) is reported as “Significant ARE reporter induction”, the ARE reporter induction [2, 3] is reported as “not with CYP3A4 or CYP2D6” and the “induction of the ARE reporter” value [2] is reported as “little or no induction”.

Reference: patent publication US20100093017A1, “Metabolically Competent Cell Lines” (CXR Biosciences Limited, priority 2008, published 2010)
